Data set [1] relates to HPEC-A2 monolayer.
Method: (§2) Polycarbonate Transwell® inserts (pore size 3.0 µm, growth area 1.12 cm^2, apical volume 0.5 ml, basolateral volume 1.5 ml; Corning®, Sigma-Aldrich, Buchs, Switzerland) were pre-coated with 50 µg/ml human placental collagen IV (Sigma-Aldrich, Buchs, Switzerland) for 1 h at 37 °C/5% CO2 (200 µl on both sides). Then the membrane was washed twice with phosphate buffered saline (PBS, pH 7.4, Sigma-Aldrich, Steinheim, Germany). Translocation experiments were done either with BeWo or HPEC monocultures or with both cell lines co-cultivated on a membrane. For the BeWo monolayer 1.5 × 10^5 cells in 500 µl EM were added apically and 1.5 ml EM basolaterally. For the HPEC monolayer the cells were seeded on the basolateral side of the membrane (Fig. 5a–d). Therefore, the reversed insert was placed in a 6-well plate (TPP, Faust AG, Schaffhausen, Switzerland), which had been filled with 1 ml sterile PBS to ensure a humid surrounding. Small rubber spaces (1.5 mm thick) were placed in each corner of the plate in order to slightly lift the lid to prevent direct contact of the lid with the membrane. This enables the adhesion of the drop to the lid, thereby avoiding medium loss as well as cell aggregation in the center. 1 × 10^5 HPECs in 200 µl EM were added to the membrane and the lid was immediately placed on the plate. After 2 h of incubation (37 °C, 5% CO2), the insert was placed into a 12-well plate with fresh EM (0.5 ml apical and 1.5 ml basolateral). For the co-culture, the steps described above for the monocultures were done, starting with the HPEC layer. The inserts were cultivated for 3 d at 37 °C/5% CO2 in EM (medium change after 48 h) under static conditions.
(§3) Translocation studies were performed with co-cultured membranes as well as separate monolayers (BeWo on the apical or HPEC on the basolateral side of the insert) cultivated for 3 d as described above. […] At each time point (0, 0.25, 2, 4, 6, 8, 24 h) samples (50 µl) were taken from the basolateral chamber and renewed with fresh medium. […] Only differences were the use of EM with phenol red and sample volumes of 200 µl (basolateral) at each time point (0, 0.25, 1, 2, 6 h). Analysis of these samples was done by high performance liquid chromatography (HPLC). These studies were conducted in static and shaken (horizontal shaking at 50 rpm) conditions to determine the potential influence of simple shaking on transfer rates.
(§4) The mass transported (ΔQn) was calculated for each time point and corrected for the mass taken before:1 ΔQn=Cn∗Vw+∑j=1n−1Vs∗Cj with the concentration measured at time tn (Cn), the volume of the well (Vw, 1.5 ml) and the sample volume (Vs). The sum of the amount removed during previous sampling is added respectively (Σ). Results were then expressed as basolateral amount of the initial dose (ID) in %. […] The permeability factor was calculated with the following two equations:2 P=ΔQ/Δt/A∗C0 3 Pe=1/(1/Pc−1/Pm) where the permeability factor (P; cm s^−1) is first calculated as the quotient of the amount transported (ΔQ; mg) at a specific time point (Δt; sec) divided by the product of the membrane surface area (cm^2) and the initial concentration of the substance (C0; mg cm^−3). Pe describes the apparent permeability factor corrected for the influence of the membrane. Therefore, the permeability value across the membrane Pm was subtracted from the permeability across the cells (Pc; monolayer or co-culture).
The subject of data set [2] is HPEC-A2 monolayer. Put plainly: Sodium fluorescein (Na-F) exclusion assay, HPEC monoculture. Type of data set: in vitro ADME, human. Conditions: after 3 d of cultivation, 5 µM Na-F, 3 h incubation. On the procedure: (§1) To determine barrier formation, exclusion of Na-F was determined daily for 4 d. 0.5 ml of 5 µM Na-F (Sigma-Aldrich, Buchs, Switzerland) was added to the apical chamber and 1.5 ml EM (without phenol red) to the basal chamber.

The subject of data set [3] is BeWo b30 / HPEC-A2 co-culture. The experiment in a line: Sodium fluorescein (Na-F) exclusion assay, co-culture. To be noted: day 3 of cultivation, 5 µM Na-F, 3 h incubation. The format is in vitro ADME, human. On the procedure:
as §1

Data set [4] has as its system BeWo b30 / HPEC-A2 co-culture.
Method: as §2, §3, §4
Data set [5] concerns BeWo cells. To be noted: cited from earlier work.
The subject of data set [6] is BeWo b30 monolayer.
Method: as §2, §3, §4
For data set [7], the system named is BeWo b30 monolayer. Put plainly: Sodium fluorescein (Na-F) exclusion assay, BeWo monoculture. The format is in vitro ADME, human. Conditions: day 3 of cultivation, 5 µM Na-F, 3 h incubation. On the procedure: as §1
Data set [8] in a line: in vitro. To be noted: not told, Permeability factor P2h.
Method: as §2
(§5) Translocation studies were performed with co-cultured membranes as well as separate monolayers (BeWo on the apical or HPEC on the basolateral side of the insert) cultivated for 3 d as described above. […] At each time point (0, 0.25, 2, 4, 6, 8, 24 h) samples (50 µl) were taken from the basolateral chamber and renewed with fresh medium. […]
(§6) The mass transported (ΔQn) was calculated for each time point and corrected for the mass taken before:1 ΔQn=Cn∗Vw+∑j=1n−1Vs∗Cj with the concentration measured at time tn (Cn), the volume of the well (Vw, 1.5 ml) and the sample volume (Vs). […] Results were then expressed as basolateral amount of the initial dose (ID) in %. […] The permeability factor was calculated with the following two equations:2 P=ΔQ/Δt/A∗C0 3 Pe=1/(1/Pc−1/Pm) where the permeability factor (P; cm s^−1) is first calculated as the quotient of the amount transported (ΔQ; mg) at a specific time point (Δt; sec) divided by the product of the membrane surface area (cm^2) and the initial concentration of the substance (C0; mg cm^−3). […]
Data set [9] has as its system BeWo monolayer. To be noted: cited from earlier work.
The conditions of data set [10]: not told, 2 h.
Method: as §2, §5, §6
Data set [11] can be described thus: in vitro. To be noted: human.
Method: as §2, §3, §4
The subject of data set [12] is BeWo b30 / HPEC-A2 co-culture. The experiment in a line: Translocation study across BeWo/HPEC co-culture (placental barrier model). To be noted: after 6 h, static, 100 µM.
Method: as §2, §3, §4
Test in data set [13]: as above
Conditions: human.
Method: as §2, §3, §4

The subject of data set [14] is BeWo b30 monolayer. The experiment in a line: Translocation study across BeWo monolayer on collagen-coated 3 µm polycarbonate Transwell insert. Conditions: BeWo layer, after 6 h, static, 100 µM.
Method: as §2, §3, §4
Test in data set [15]: as above
To be noted: human; for Papp at 2 h, 100 µM: BeWo monolayer.
Method: as §2, §3, §4

Data set [16] is described as follows: Translocation across control (empty collagen-coated) insert membrane. To be noted: not told, Permeability factor P2h.
Method: as §2, §5, §6
Data set [17] concerns HPEC-A2 monolayer. The experiment in a line: Translocation study across HPEC monolayer on collagen-coated 3 µm polycarbonate Transwell insert. To be noted: after 6 h, static, 100 µM.
Method: as §2, §3, §4
Test in data set [18]: as above
Conditions: human.
Method: as §2, §3, §4

Setting [19] is: Apparent permeability factor Pe, 2h, shaken (50 rpm), median ± mad.
The mark [20] stands for this setting: Apparent permeability factor Pe, 2h, static, median ± mad.
[21] abbreviates: Permeability factor P2h, shaken, without subtraction of Pmembrane.
[22] abbreviates: Permeability factor P2h, static, without subtraction of Pmembrane.

Where two headings read alike, the source gives them in different places.

The text below walks through data of article PMC5876397, “An advanced human in vitro co-culture model for translocation studies across the placental barrier” (Scientific Reports, 2018).

As for `O=C([O-])c1ccccc1-c1c2ccc(=O)cc-2oc2cc([O-])ccc12.[Na+].[Na+]` [Na-F, sodium fluorescein], the “Transport, basolateral amount of the initial dose (ID)” value (from here on “Transport, basolateral amount”) amounted to 77.0% in [1], 35.1% in data set [4] and 34.5% in data set [6]. Moreover, the “Na-F translocation, basolateral amount of ID” value in data set [2] is 14.0 % of ID; in data set [3] it was 0.5 % of ID; in data set [7], 0.5 % of ID. Further, in data set [4], the “Apparent permeability factor Pe, 2h” value is on record as 1.1 ± 1.1 × 10^−6 cm s^−1. Also, the “Permeability factor P2h” value in data set [4] is 1.0 ± 1.0 x 10-6 cm s-1; in data set [6], 2.5 ± 0.4 x 10-6 cm s-1. Besides, the “Viability of BeWo cells” value in [5] (previous publications ref 47, 64) is “did not affect the viability”.
As to `Cc1cc(=O)n(-c2ccccc2)n1C` [antipyrine], the “Apparent permeability factor Pe, 2h” value is on record as 76.5 ± 7.0 × 10^−6 cm s^−1 in data set [1] (human, 2 h, 100 µM) and 106.4 ± 8.2 × 10^−6 cm s^−1 in data set [6] (human, 2 h, 100 µM). Further, the “Permeability factor P2h” value in [1] (human, 2 h, 100 µM) is listed as 24.1 ± 1.0; in data set [10], 35.3 ± 0.7; in [6] (human, 2 h, 100 µM), 26.5 ± 1.1. Besides, the “Transport, basolateral amount” value in [1] (human, 6 h, 100 µM) is given as 71.4%; in data set [4] (human, 6 h, 100 µM) it was 80.9%; in data set [6] (human, 6 h, 100 µM) it was 74.7%. The Papp at 2 h in data set [8] came to 50 ± 3.4 ×10⁻⁶ cm/s. The “Permeability Pe,1h” value in data set [9] is 58 ×10⁻⁶ cm/s. In addition, the “Viability of BeWo cells” value in data set [5] was “did not affect the viability”. Besides, the Papp at 1 h, 100 µM in [11] (Permeability P1h) stood at 36.2 ×10⁻⁶ cm/s; in data set [11] (Permeability Pe, 1h), 79.3 ×10⁻⁶ cm/s.
As to `COc1ccc2c(c1)c(CC(=O)O)c(C)n2C(=O)c1ccc(Cl)cc1` [indomethacin], the “Transport, basolateral amount” value in [12] was found to be 41.5%; in [14], 45.9%; in data set [17], 42.9%. Moreover, the Papp at 2 h, 100 µM in [13] (setting [19]) was found to be 30.7 ± 1.2 ×10⁻⁶ cm/s; in data set [13] (setting [20]), 26.7 ± 0.2 ×10⁻⁶ cm/s; in [13] (setting [21]), 17.3 ± 0.8 ×10⁻⁶ cm/s; in data set [13] (setting [22]), 15.3 ± 1.1 ×10⁻⁶ cm/s; in [15] (setting [19]) it was 37.2 ± 11.9 ×10⁻⁶ cm/s; in data set [15] (Apparent permeability factor Pe, 2h, static, apical to basolateral, median ± mad), 39.5 ± 8 ×10⁻⁶ cm/s. The Papp at 2 h, 100 µM was 21.7 ± 0.3 ×10⁻⁶ cm/s in [15] (setting [21]); 19 ± 3.5 ×10⁻⁶ cm/s in data set [15] (setting [22]); 22.7 ± 0.4 ×10⁻⁶ cm/s in data set [18] (setting [19]); 19 ± 0.1 ×10⁻⁶ cm/s in data set [18] (setting [20]); 14.6 ± 1.2 ×10⁻⁶ cm/s in data set [18] (setting [21]); 12.6 ± 0.6 ×10⁻⁶ cm/s in data set [18] (setting [22]). Further, in [15] (Permeability P1h, this study, static, compared with BeWo monolayer literature values), the Papp at 1 h, 100 µM was found to be 19.9 ×10⁻⁶ cm/s. For the same compound, the “Permeability P1h” value in [9] (BeWo monoculture transfer model, static conditions, Li et al. ref 47) was 23.2 ×10⁻⁶ cm/s. Besides, the Papp at 2 h was determined as 39.6 ± 6.5 ×10⁻⁶ cm/s in [16] (shaken) and 36.4 ± 1.1 ×10⁻⁶ cm/s in [16] (static, median ± mad).

The term Papp denotes a coefficient for how fast a substance crosses the barrier.
